Experimental data: US9242970B2 (ACTELION PHARMACEUTICALS LTD., priority 2010, dated 2016)
Where two headings read alike, the source gives them in different places.

Key:
[1] = target: human orexin-1 receptor (Homo sapiens (Human), UniProt O43613); experiment: In vitro assay: intracellular calcium measurements (FLIPR), antagonistic activity; assay type: cell-based; settings: CHO cells, 3 nM orexin-A, marked values are geometric means of n = 2-6, read-out: IC50 OX1
[2] = target: human orexin-2 receptor (Homo sapiens (Human), UniProt O43614); experiment: as above; assay type: cell-based; settings: CHO cells, 3 nM orexin-A, marked values are geometric means of n = 2-6, read-out: IC50 OX2
Chain of human orexin-2 receptor (O43614 whole entry): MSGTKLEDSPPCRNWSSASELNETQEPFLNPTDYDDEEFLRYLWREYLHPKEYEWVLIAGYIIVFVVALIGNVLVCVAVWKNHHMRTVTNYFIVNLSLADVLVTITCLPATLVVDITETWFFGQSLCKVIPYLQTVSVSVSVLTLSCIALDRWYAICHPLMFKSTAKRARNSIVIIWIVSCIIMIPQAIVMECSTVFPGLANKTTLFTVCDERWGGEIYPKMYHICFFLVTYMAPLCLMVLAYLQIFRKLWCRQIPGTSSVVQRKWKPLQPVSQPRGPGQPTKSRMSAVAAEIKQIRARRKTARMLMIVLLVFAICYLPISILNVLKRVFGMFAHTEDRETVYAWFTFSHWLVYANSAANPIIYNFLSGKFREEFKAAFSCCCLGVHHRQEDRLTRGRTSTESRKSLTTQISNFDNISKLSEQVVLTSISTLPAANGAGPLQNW

[3] = compound incubation time of 10 min

Chain of human orexin-1 receptor (O43613 whole entry): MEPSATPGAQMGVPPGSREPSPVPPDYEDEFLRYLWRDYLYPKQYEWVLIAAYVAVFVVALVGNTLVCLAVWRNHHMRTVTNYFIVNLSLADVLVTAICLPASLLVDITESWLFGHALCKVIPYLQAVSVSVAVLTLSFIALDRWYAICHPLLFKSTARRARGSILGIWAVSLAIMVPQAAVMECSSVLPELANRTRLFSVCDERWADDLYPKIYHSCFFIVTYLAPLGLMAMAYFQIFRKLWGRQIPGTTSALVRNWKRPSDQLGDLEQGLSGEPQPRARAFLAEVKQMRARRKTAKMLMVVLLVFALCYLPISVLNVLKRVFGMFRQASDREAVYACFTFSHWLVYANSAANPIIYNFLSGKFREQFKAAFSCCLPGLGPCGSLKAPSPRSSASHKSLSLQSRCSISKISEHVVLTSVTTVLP

In the case of `COc1cccc(OC)c1C1CCCCC(=O)N1Cc1cccc(N2CCCCC2)c1` (stereo not drawn) [Example 88, 7-(2,6-dimethoxyphenyl)-1-(3-(piperidin-1-yl)benzyl)azepan-2-one], the IC50 ([1]; compound incubation 120 min) is reported as 12 nM and the IC50 ([2]; compound incubation 120 min) is reported as 58 nM.
In the case of `COc1cncc(OC)c1C1CCCC(=O)N1Cc1cccc(-c2ccccn2)c1` (stereo not drawn) [Example 63, 6-(3,5-dimethoxypyridin-4-yl)-1-(3-(pyridin-2-yl)benzyl)piperidin-2-one], the IC50 ([1]; compound incubation 120 min) is reported as 135 nM and the IC50 ([2]; compound incubation 120 min) is reported as 90 nM.
For `CCOc1cccc(F)c1[C@@H]1C[C@@H](O)C(=O)N1Cc1ccccc1OC(F)(F)F` (racemic) [Example 433, rac-(3R*,5S*)-5-(2-ethoxy-6-fluorophenyl)-3-hydroxy-1-(2-(trifluoromethoxy)benzyl)pyrrolidin-2-one], the IC50 ([1]; compound incubation 120 min) was 1710 nM and the IC50 ([2]; compound incubation 120 min) was 3920 nM.
Work on `COc1ccnc(OC)c1C1CC(C)C(=O)N1Cc1cccc(-c2ncc(C)s2)c1` (stereo not drawn) [Example 349, 5-(2,4-dimethoxypyridin-3-yl)-3-methyl-1-(3-(5-methylthiazol-2-yl)benzyl)pyrrolidin-2-one] yielded an IC50 ([1]; compound incubation 120 min) of 104 nM and an IC50 ([2]; compound incubation 120 min) of 120 nM.
In the case of `COc1ncnc(OC)c1C1CCCC(=O)N1Cc1csc(-c2ccccc2)n1` (stereo not drawn) [Example 271, 6-(4,6-dimethoxypyrimidin-5-yl)-1-((2-phenylthiazol-4-yl)methyl)piperidin-2-one], the IC50 ([1]; compound incubation 120 min) is reported as 5690 nM and the IC50 ([2]; compound incubation 120 min) is reported as 256 nM.
With `COc1cccc(OC)c1C1CC(C)C(=O)N1Cc1cccc(OC(F)(F)C(F)F)c1` (stereo not drawn) [Example 424, 5-(2,6-dimethoxyphenyl)-3-methyl-1-(3-(1,1,2,2-tetrafluoroethoxy)benzyl)pyrrolidin-2-one] the IC50 ([1]; compound incubation 120 min) was 27 nM and the IC50 ([2]; compound incubation 120 min) was 13 nM.
`O=C1CCCCC(c2ccccc2-c2ccccc2)N1Cc1cccc(-c2nccs2)c1` (stereo not drawn) [Example 454, 7-([1,1′-biphenyl]-2-yl)-1-(3-(thiazol-2-yl)benzyl)azepan-2-one] showed an IC50 ([1]; compound incubation 120 min) of 182 nM and an IC50 ([2]; compound incubation 120 min) of 77 nM.
For `COc1cccc(OC)c1C1CCCCC(=O)N1Cc1cccc(-c2ccccc2)c1` (stereo not drawn) [Example 72, 1-([1,1′-biphenyl]-3-ylmethyl)-7-(2,6-dimethoxyphenyl)azepan-2-one], the IC50 ([1]; compound incubation 120 min) was 3 nM and the IC50 ([2]; compound incubation 120 min) was 12 nM.
`COc1cccc(OC)c1C1CCCC(=O)N1Cc1cc(Cl)cc(-c2ccccn2)c1` (stereo not drawn) [Example 49, 1-(3-chloro-5-(pyridin-2-yl)benzyl)-6-(2,6-dimethoxyphenyl)piperidin-2-one] was tested, and the IC50 ([1]; compound incubation 120 min) was 28 nM and the IC50 ([2]; compound incubation 120 min) was 11 nM.
`CCOc1cccc(F)c1[C@@H]1C[C@H](F)C(=O)N1Cc1ccc(OC(F)(F)F)cc1` (racemic) [Example 342, rac-(3S*,5S*)-5-(2-ethoxy-6-fluorophenyl)-3-fluoro-1-(4-(trifluoromethoxy)benzyl)pyrrolidin-2-one] was tested, and the IC50 ([1]; compound incubation 120 min) was 1110 nM and the IC50 ([2]; compound incubation 120 min) was 8 nM.
`COc1cccc(OC)c1C1CCCC(=O)N1Cc1cccc(-c2ccncc2)c1` (stereo not drawn) [Example 9, 6-(2,6-dimethoxyphenyl)-1-(3-(pyridin-4-yl)benzyl)piperidin-2-one] gave an IC50 ([1]; compound incubation 120 min) of 29 nM and an IC50 ([2]; compound incubation 120 min) of 64 nM.
Work on `Cc1nc(-c2cccc(CN3C(=O)CCCC3c3ccccc3-c3ccccc3)c2)cs1` (stereo not drawn) [Example 283, 6-([1,1′-biphenyl]-2-yl)-1-(3-(2-methylthiazol-4-yl)benzyl)piperidin-2-one] yielded an IC50 ([1]; compound incubation 120 min) of 275 nM and an IC50 ([2]; compound incubation 120 min) of 548 nM.
`COc1cccc(OC)c1C1CCCC(=O)N1Cc1cnc(-c2ccccc2)s1` (stereo not drawn) [Example 21, 6-(2,6-dimethoxyphenyl)-1-((2-phenylthiazol-5-yl)methyl)piperidin-2-one] showed an IC50 ([1]; compound incubation 120 min) of 951 nM and an IC50 ([2]; compound incubation 120 min) of 366 nM.
`CCOc1cccc(Cl)c1[C@@H]1C[C@H](F)C(=O)N1Cc1ccc(OC(F)(F)F)cc1` (racemic) [Example 436, rac-(3S*,5S*)-5-(2-chloro-6-ethoxyphenyl)-3-fuoro-1-(4-(trifluoromethoxy)benzyl)pyrrolidin-2-one] showed an IC50 ([1]; compound incubation 120 min) of 965 nM and an IC50 ([2]; compound incubation 120 min) of 31 nM.
`COc1cccc(OC)c1C1CCCCC(=O)N1Cc1ccc(OC(F)(F)F)cc1` (stereo not drawn) [Example 193, 7-(2,6-dimethoxyphenyl)-1-(4-(trifluoromethoxy)benzyl)azepan-2-one] was tested, and the IC50 [1, 3] was 257 nM and the IC50 [2, 3] was 66 nM.
Work on `COc1cccc(OC)c1C1CC(C)C(=O)N1Cc1cc(OC(F)F)ccn1` (stereo not drawn) [Example 204, 1-((4-(difluoromethoxy)pyridin-2-yl)methyl)-5-(2,6-dimethoxyphenyl)-3-methylpyrrolidin-2-one] yielded an IC50 [1, 3] of 6380 nM and an IC50 [2, 3] of 1260 nM.
`O=C1[C@H](O)C[C@@H](c2c(F)cccc2OCCF)N1Cc1ccc(OC(F)(F)F)cc1` (racemic) [Example 432, rac-(3R*,5S*)-5-(2-fluoro-6-(2-fluoroethoxy)phenyl)-3-hydroxy-1-(4-(trifluoromethoxy)benzyl)pyrrolidin-2-one] showed an IC50 ([1]; compound incubation 120 min) of 3960 nM and an IC50 ([2]; compound incubation 120 min) of 57 nM.
`COc1cccc(OC)c1C1CCCC(=O)N1Cc1cccc(-c2ccccc2)c1` (stereo not drawn) [Example 189, 1-([1,1′-biphenyl]-3-ylmethyl)-6-(2,6-dimethoxyphenyl)piperidin-2-one] showed an IC50 ([1]; compound incubation 120 min) of 17 nM and an IC50 ([2]; compound incubation 120 min) of 12 nM.
With `COc1cccc(OC)c1C1CCCCC(=O)N1Cc1ccc2nc(C)sc2c1` (stereo not drawn) [Example 105, 7-(2,6-dimethoxyphenyl)-1-((2-methylbenzo[d]thiazol-6-yl)methyl)azepan-2-one] the IC50 ([1]; compound incubation 120 min) was 155 nM and the IC50 ([2]; compound incubation 120 min) was 258 nM.
For `COc1cccc(OC)c1C1CCCC(=O)N1Cc1cccc(-c2cncs2)c1` (stereo not drawn) [Example 42, 6-(2,6-dimethoxyphenyl)-1-(3-(thiazol-5-yl)benzyl)piperidin-2-one], the IC50 ([1]; compound incubation 120 min) was 25 nM and the IC50 ([2]; compound incubation 120 min) was 17 nM.
`COc1cccc(OC)c1C1CCC(C)(C)C(=O)N1Cc1ccc(OC(F)(F)F)cc1` (stereo not drawn) [Example 215, 6-(2,6-dimethoxyphenyl)-3,3-dimethyl-1-(4-(trifluoromethoxy)benzyl)piperidin-2-one] was tested, and the IC50 [1, 3] was 1410 nM and the IC50 [2, 3] was 1290 nM.
Work on `COc1cccc(OC)c1C1CC(C)C(=O)N1Cc1cccc(-c2cncs2)c1` (stereo not drawn) [Example 147, 5-(2,6-dimethoxyphenyl)-3-methyl-1-(3-(thiazol-5-yl)benzyl)pyrrolidin-2-one] yielded an IC50 ([1]; compound incubation 120 min) of 20 nM and an IC50 ([2]; compound incubation 120 min) of 114 nM.
`COc1ccc2ccccc2c1C1CCCC(=O)N1Cc1cccc(Oc2ccccc2)c1` (stereo not drawn) [Example 447, 6-(2-methoxynaphthalen-1-yl)-1-(3-phenoxybenzyl)piperidin-2-one] gave an IC50 ([1]; compound incubation 120 min) of 112 nM and an IC50 ([2]; compound incubation 120 min) of 92 nM.
`COc1cccc(OC)c1C1CC(C)C(=O)N1Cc1ccc2oc3ccccc3c2c1` (stereo not drawn) [Example 137, 1-(dibenzo[b,d]furan-2-ylmethyl)-5-(2,6-dimethoxyphenyl)-3-methylpyrrolidin-2-one] was tested, and the IC50 ([1]; compound incubation 120 min) was 2 nM and the IC50 ([2]; compound incubation 120 min) was 5 nM.
`COc1cccc(OC)c1C1CCCC(=O)N1Cc1ccccc1-c1ccccc1` (stereo not drawn) [Example 190, 1-([1,1′-biphenyl]-2-ylmethyl)-6-(2,6-dimethoxyphenyl)piperidin-2-one] was tested, and the IC50 [1, 3] was 1950 nM and the IC50 [2, 3] was 507 nM.
`COc1cccc(OC)c1C1CNCC(=O)N1Cc1ccc(OC(F)(F)F)cc1` (stereo not drawn) [Example 267, 6-(2,6-dimethoxyphenyl)-1-(4-(trifluoromethoxy)benzyl)piperazin-2-one] was tested, and the IC50 [1, 3] was 2680 nM and the IC50 [2, 3] was 589 nM.
For `COc1cccc(OC)c1C1CC(C)C(=O)N1Cc1cccc(OCC(F)F)c1` (stereo not drawn) [Example 419, 1-(3-(2,2-difluoroethoxy)benzyl)-5-(2,6-dimethoxyphenyl)-3-methylpyrrolidin-2-one], the IC50 ([1]; compound incubation 120 min) was 143 nM and the IC50 ([2]; compound incubation 120 min) was 173 nM.
Work on `COc1ccc2ccccc2c1[C@@H]1C[C@H](Cl)C(=O)N1Cc1ccc(OC(F)(F)F)cc1` (racemic) [Example 316, rac-(3S*,5S*)-3-chloro-5-(2-methoxynaphthalen-1-yl)-1-(4-(trifluoromethoxy)benzyl)pyrrolidin-2-one] yielded an IC50 ([1]; compound incubation 120 min) of 329 nM and an IC50 ([2]; compound incubation 120 min) of 1040 nM.
`COc1cc(C)cc(OC)c1C1CCCC(=O)N1Cc1ccc(OC(F)(F)F)cc1` (stereo not drawn) [Example 233, 6-(2,6-dimethoxy-4-methylphenyl)-1-(4-(trifluoromethoxy)benzyl)piperidin-2-one] showed an IC50 [1, 3] of 400 nM and an IC50 [2, 3] of 107 nM.
In the case of `COc1ccc(Cl)c(OC)c1[C@@H]1C[C@H](F)C(=O)N1Cc1ccc(OC(F)(F)F)cc1` (racemic) [Example 319, rac-(3S*,5S*)-5-(3-chloro-2,6-dimethoxyphenyl)-3-fluoro-1-(4-(trifluoromethoxy)benzyl)pyrrolidin-2-one], the IC50 ([1]; compound incubation 120 min) is reported as 971 nM and the IC50 ([2]; compound incubation 120 min) is reported as 1020 nM.
Work on `CCOc1cccc(OC)c1C1CC(F)(F)C(=O)N1Cc1cccc(-c2ccccc2)c1` (stereo not drawn) [Example 337, 1-([1,1′-biphenyl]-3-ylmethyl)-5-(2-ethoxy-6-methoxyphenyl)-3,3-difluoropyrrolidin-2-one] yielded an IC50 ([1]; compound incubation 120 min) of 12 nM and an IC50 ([2]; compound incubation 120 min) of 63 nM.
In the case of `COc1cccc(OC)c1C1CCCC(=O)N1Cc1ccc2nc(C)sc2c1` (stereo not drawn) [Example 47, 6-(2,6-dimethoxyphenyl)-1-((2-methylbenzo[d]thiazol-6-yl)methyl)piperidin-2-one], the IC50 ([1]; compound incubation 120 min) is reported as 187 nM and the IC50 ([2]; compound incubation 120 min) is reported as 165 nM.
In the case of `COc1cccc(OC)c1C1CCCCC(=O)N1Cc1ccc2ccccc2n1` (stereo not drawn) [Example 79, 7-(2,6-dimethoxyphenyl)-1-(quinolin-2-ylmethyl)azepan-2-one], the IC50 ([1]; compound incubation 120 min) is reported as 21 nM and the IC50 ([2]; compound incubation 120 min) is reported as 82 nM.
`COc1cccc(OC)c1[C@@H]1C[C@H](Cl)C(=O)N1Cc1ccc2oc3ccccc3c2c1` (racemic) [Example 369, rac-(3S*,5S*)-3-chloro-1-(dibenzo[b,d]furan-2-ylmethyl)-5-(2,6-dimethoxyphenyl)pyrrolidin-2-one] showed an IC50 ([1]; compound incubation 120 min) of 2 nM and an IC50 ([2]; compound incubation 120 min) of 5 nM.
For `CCOc1cc(F)ccc1[C@@H]1C[C@@H](O)C(=O)N1Cc1ccc(OC(F)(F)F)cc1` (racemic) [Example 335, rac-(3R*,5S*)-5-(2-ethoxy-4-fluorophenyl)-3-hydroxy-1-(4-(trifluoromethoxy)benzyl)pyrrolidin-2-one], the IC50 ([1]; compound incubation 120 min) was 5350 nM and the IC50 ([2]; compound incubation 120 min) was 1360 nM.
For `COc1cccc(F)c1C1CC(C)C(=O)N1Cc1ccnc(-c2ncc(C)s2)c1` (stereo not drawn) [Example 360, 5-(2-fluoro-6-methoxyphenyl)-3-methyl-1-((2-(5-methylthiazol-2-yl)pyridin-4-yl)methyl)pyrrolidin-2-one], the IC50 ([1]; compound incubation 120 min) was 352 nM and the IC50 ([2]; compound incubation 120 min) was 12 nM.
